≈ marks a conversion by molar mass, not a printed value. Records with an inconclusive call do not appear. Calls of active or inactive are those of the source. No rule for the calls is given here.
Tested on: M. tuberculosis H37Rv growth inhibition
Experiment: Mycobacterium tuberculosis H37Rv growth inhibition, cell based, confirmatory dose response (AID 1949);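 also: bacteria grown 7 days with compound before Alamar blue readout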

| SMILES | IC50 |
| --- | --- |
| CCOC(=O)COc1ccc(S(=O)(=O)Nc2ccc(C)c(C)c2)cc1 | 1.03 µg/mL (≈ 2.83 µM) |
| CN(C)c1ccc(C(O)(c2ccc(N(C)C)cc2)c2ccc(N(C)C)cc2)cc1 | 0.6 µg/mL (≈ 1.54 µM) |
| CC(=O)c1ccc(COC(=O)c2ccc([N+](=O)[O-])cc2Cl)cc1 | 40.7 µg/mL (≈ 122 µM) |
| O=C(COc1ccc(Cl)cc1)NCCC12CC3CC(CC(C3)C1)C2 | 43.5 µg/mL (≈ 125 µM) |
| COc1ccc(Cc2nc3sc4c(c3c(=O)n2N)CCCC4)cc1 | > 50 µg/mL (inactive) |
| O=c1cc(Cc2ccccc2)nc2c(-c3ccccc3)c[nH]n12 | 0.36 µg/mL (≈ 1.19 µM) |
| CCc1ccc(OCC(=O)NNC(=O)c2cnccn2)c(Br)c1 | 1.12 µg/mL (≈ 2.95 µM) |
| OC(CNC1CCCC1)Cn1c2ccccc2c2ccccc21 (stereo not drawn) | 8.93 µg/mL (≈ 29 µM) |
| O=[N+]([O-])c1ncn(Cc2ccc(Cl)cc2)n1 | 7.25 µg/mL (≈ 30.4 µM) |
| O=C(CC(Nc1ccc(F)cc1)c1ccccc1)c1ccccc1 (stereo not drawn) | 9.26 µg/mL (≈ 29 µM) |
| O=C(Nc1nc(SCc2ccc(F)cc2)ns1)c1cc(F)c(F)cc1Cl | 2.35 µg/mL (≈ 5.65 µM) |
| O=C(CC12CC3CC(CC(C3)C1)C2)Nc1ccc2ccccc2c1 | < 0.1 µg/mL |
| O=C(Oc1ccc(Cl)c2cccnc12)c1cccs1 | 0.37 µg/mL (≈ 1.28 µM) |
| COC(=O)C(CC(=O)c1ccc(Br)cc1)n1ccnc1 (stereo not drawn) | 0.7 µg/mL (≈ 2.08 µM) |
| Cc1cc(=O)oc2c(C)c(OCC(=O)OCc3ccccc3)ccc12 | 2.11 µg/mL (≈ 6.24 µM) |
| C=CCc1cc(Cl)ccc1OCCCNCCCC | 5.34 µg/mL (≈ 18.9 µM) |
| COC(=O)c1ccc(N2C(=O)CC(N(CCc3ccccc3)C(=S)Nc3ccccc3)C2=O)cc1 (stereo not drawn) | 2.77 µg/mL (≈ 5.68 µM) |
| Cc1ccc(CSCC(=O)Nc2ccccc2)cc1 | 2.88 µg/mL (≈ 10.6 µM) |
| CCOC(=O)COc1ccc(S(=O)(=O)Nc2cccc(SC)c2)cc1 | 3.69 µg/mL (≈ 9.67 µM) |
| CCCn1nnc(NC(=O)COc2ccc(C3CCCCC3)cc2)n1 | 0.64 µg/mL (≈ 1.86 µM) |
| CCc1ccc(OCC(=O)Nc2ccc(N3CCN(C(=O)c4cccs4)CC3)c(Cl)c2)cc1 | 2.95 µg/mL (≈ 6.09 µM) |

| SMILES | IC50 |
| --- | --- |
| CC(C)OC(=O)C(C)Oc1ccc(C(=O)NCCc2ccccc2)cc1 (stereo not drawn) | 48.3 µg/mL (≈ 136 µM) |
| NC(=O)COc1ccc(C23CC4CC(CC(C4)C2)C3)cc1 | 19.7 µg/mL (≈ 69.2 µM) |
| N#Cc1c(C(F)(F)F)cc(-c2cccnc2)nc1SCC(=O)N1CCc2ccccc2C1 | > 50 µg/mL (inactive) |
| CCOc1cc(CNCCO)ccc1OCc1ccc(Cl)cc1Cl | 6.03 µg/mL (≈ 16.3 µM) |
| C/C(=N/N=C1\NC(=O)C(Cc2ccc(F)cc2)S1)c1ccc(C)cc1 (stereo not drawn) | > 50 µg/mL (inactive) |
| O=C(CN(c1ccc(Cl)c(Cl)c1)S(=O)(=O)c1ccccc1)Nc1cccc([N+](=O)[O-])c1 | 1.47 µg/mL (≈ 3.06 µM) |
| C=CCc1cc(C)ccc1OCCCCn1ccnc1 | 1.45 µg/mL (≈ 5.36 µM) |
| O=S1(=O)C=CC2ON=C(c3ccc(Cl)cc3)C21 (stereo not drawn) | 1.11 µg/mL (≈ 4.12 µM) |
| CCC(=O)Oc1cccc2ccc(/C=C/c3ccc(C(=O)OC)cc3)nc12 | 3.21 µg/mL (≈ 8.88 µM) |
| N#Cc1c(NC(=S)NC(=O)C2CCCC2)sc2c1CCCC2 | 28.4 µg/mL (≈ 85.2 µM) |
| Cc1cc(C)c(-n2c(O)c(/C=C3\C=CC=N3)c(=O)[nH]c2=O)c(C)c1 | 0.13 µg/mL (≈ 0.402 µM) |
| O=C(Nc1cccc(C(F)(F)F)c1)c1ccc(Cn2cc(Cl)cn2)cc1 | 5.67 µg/mL (≈ 14.9 µM) |
| O=C(Nc1ccc(OC(F)(F)F)cc1)Nc1cccc([N+](=O)[O-])c1 | 0.19 µg/mL (≈ 0.557 µM) |
| Fc1ccc(C2=NN(c3ccc(Cl)cc3)C(c3cccs3)C2)cc1 (stereo not drawn) | 5.63 µg/mL (≈ 15.8 µM) |
| CCOC(=O)COc1ccc2c(=O)c(Oc3cnn(-c4ccccc4)c3)c(C)oc2c1 | 0.61 µg/mL (≈ 1.45 µM) |
| O=C(CCN1CCC(c2ccccc2)C1)c1ccccc1 (stereo not drawn) | 12.5 µg/mL (≈ 44.6 µM) |
| CC(NCC(O)COc1ccccc1C(C)(C)C)c1ccccc1 (stereo not drawn) | 2.55 µg/mL (≈ 7.79 µM) |
| CCOC(=O)c1ccc(NC(=S)NC(NC(=O)c2ccc(Br)cc2)C(Cl)(Cl)Cl)cc1 (stereo not drawn) | 6.15 µg/mL (≈ 11.1 µM) |
| COC(=O)C(C)Oc1ccc2c(=O)c(-c3ccc(Cl)cc3)coc2c1 (stereo not drawn) | 4.23 µg/mL (≈ 11.8 µM) |
| CC1=NN(c2nc3ccccc3s2)C(=O)C1Cc1cccc2ccccc12 (stereo not drawn) | 0.3 µg/mL (≈ 0.808 µM) |
| COc1cc(CNCc2cccnc2)ccc1OCc1ccc(Cl)cc1Cl | 8.24 µg/mL (≈ 20.4 µM) |

| SMILES | IC50 |
| --- | --- |
| O=C(Nc1ccc(C(F)(F)F)cc1)Nc1cccc(Cl)c1 | 0.2 µg/mL (≈ 0.636 µM) |
| CC(C)(C)c1ccc(-c2nc(-c3ccncc3)no2)cc1 | > 50 µg/mL (inactive) |
| OC(COc1ccccc1Br)CN1CCN(C(c2ccccc2)c2ccccc2)CC1 (stereo not drawn) | 5.33 µg/mL (≈ 11.1 µM) |
| Cc1sc2ncnc(N3CCN(CCOc4ccc(Cl)cc4)CC3)c2c1C | > 50 µg/mL (inactive) |
| N#Cc1cc(Oc2ccc(OCc3ccccc3)cc2)c([N+](=O)[O-])cc1C#N | < 0.1 µg/mL |
| O=C(CC12CC3CC(CC(C3)C1)C2)NC(=S)Nc1ccc2c(c1)OCCO2 | > 50 µg/mL (inactive) |
| CC(=O)Oc1cccc2ccc(/C=C/c3cccs3)nc12 | 1.14 µg/mL (≈ 3.86 µM) |
| COc1ccccc1/C=C/c1nn2c(-c3ccc(C)cc3)nnc2s1 | 45.6 µg/mL (≈ 131 µM) |
| O=S(=O)(CCSc1nc2ccccc2s1)c1nc2ccccc2s1 | 7.23 µg/mL (≈ 18.4 µM) |
| COc1ccc(C(=O)C(CN2CCOCC2)c2ccccc2)cc1 (stereo not drawn) | 2.09 µg/mL (≈ 6.42 µM) |
| CSc1ccccc1NC(=O)c1ccc(Cl)s1 | 5.6 µg/mL (≈ 19.7 µM) |
| c1ccc(CN2CCN(CCCOc3cccc4ccccc34)CC2)cc1 | 4.68 µg/mL (≈ 13 µM) |
| O=C1c2ccc(-c3nc4ccccc4c(=O)o3)cc2C(=O)N1Cc1ccccc1 | > 50 µg/mL (inactive) |
| Cc1cc(C)nc(/N=C(\N)Nc2cc(Cl)ccc2Oc2ccccc2)n1 | 2.21 µg/mL (≈ 6.01 µM) |
| O=C(Oc1cccc2cccnc12)c1ccc(S(=O)(=O)N2CCCCC2)cc1 | 1.48 µg/mL (≈ 3.73 µM) |
| O=C(CCN1Cc2ccccc2C1)c1ccc2c(c1)OCCO2 | > 50 µg/mL (inactive) |
| O=C(Oc1ccc(C2CCCCC2)cc1)c1cccs1 | 13.3 µg/mL (≈ 46.4 µM) |
| Cc1nc2ccccc2n1CCCOc1ccc(Cl)cc1 | 4.87 µg/mL (≈ 16.2 µM) |
| CN1CCN(c2nc(N3CCCc4ccccc43)nc(N3CCCc4ccccc43)n2)CC1 | 5.33 µg/mL (≈ 12.1 µM) |
| CC1=NN(C(=O)c2ccccc2)C(O)(c2ccncc2)C1 (stereo not drawn) | < 0.1 µg/mL |
| CCOc1ccc(Nc2nc(-c3ccccn3)cs2)cc1 | < 0.1 µg/mL |

| SMILES | IC50 |
| --- | --- |
| OC(COc1ccccc1Cl)CN1CCN(C(c2ccccc2)c2ccccc2)CC1 (stereo not drawn) | 2.51 µg/mL (≈ 5.74 µM) |
| O=[N+]([O-])c1ccc(N2CCN(CCO)CC2)cc1NCCOc1cccc2ccccc12 | 2.82 µg/mL (≈ 6.46 µM) |
| Nc1nc2ccccc2n1CCOc1ccc(Cl)cc1Cl | 3.85 µg/mL (≈ 11.9 µM) |
| CC1(C)Cc2c(sc3nc(SCC(=O)Nc4ccc(Br)cc4)nc(N)c23)CS1 | 6.22 µg/mL (≈ 12.6 µM) |
| O=C(/C=C/c1cc([N+](=O)[O-])ccc1O)c1ccc(Cl)cc1 | 1.24 µg/mL (≈ 4.08 µM) |
| CCOC(=O)C1CCN(C2=NC(=O)/C(=C\c3ccc(Cl)cc3Cl)S2)CC1 | 0.41 µg/mL (≈ 0.992 µM) |
| COc1ccc(OC(=O)c2sc3ccccc3c2Cl)cc1 | > 50 µg/mL (inactive) |
| CC(=O)c1cccc(NC(=S)NC(=O)c2ccc(C(C)(C)C)cc2)c1 | 12.5 µg/mL (≈ 35.3 µM) |
| CN(C)CC1CC(C(C)(C)C)CCC1=O (stereo not drawn) | 2.45 µg/mL (≈ 11.6 µM) |
| O=C(COc1ccc(Cl)cc1)Nc1ccc(N2CCN(C(=O)c3ccco3)CC2)c(Cl)c1 | 1.67 µg/mL (≈ 3.52 µM) |
| N#C/C(=C/c1ccc(N2CCCCC2)o1)c1cccc(F)c1 | 5.98 µg/mL (≈ 20.2 µM) |
| COc1cc(CNC(C)c2ccccc2)cc(Br)c1OCc1ccc(F)cc1 (stereo not drawn) | 4.06 µg/mL (≈ 9.14 µM) |
| Cc1ccc2cccc(OCC(=O)c3ccc(C)c(C)c3)c2n1 | 11.3 µg/mL (≈ 37.2 µM) |
| CCOC(=O)COc1ccc(C(=O)NC2CCCCC2)cc1 | 1.09 µg/mL (≈ 3.57 µM) |
| N#C/C(=C/c1ccc([N+](=O)[O-])o1)c1ccc(C#N)cc1 | 2.96 µg/mL (≈ 11.2 µM) |
| O=C(/C=C/c1ccccc1OC(=O)c1cccnc1)c1ccc(Cl)cc1 | 5.61 µg/mL (≈ 15.4 µM) |
| C#Cc1cccc(NC(=O)COc2ccc(Cl)cc2)c1 | 8.18 µg/mL (≈ 28.6 µM) |
| O=C(c1ccccc1)c1ccc(OCC(O)Cn2cnc3ccccc32)cc1 (stereo not drawn) | 1.51 µg/mL (≈ 4.05 µM) |
| Cc1cc(C)c(C(=O)/C=C/c2cccc([N+](=O)[O-])c2)cc1C | 0.36 µg/mL (≈ 1.22 µM) |
| O=C(CCN1C(=O)c2ccccc2C1=O)Oc1cccc2cccnc12 | 2.78 µg/mL (≈ 8.03 µM) |

— PubChem BioAssay AID1949 (Southern Research Institute, 2009)
